Measurements from patent US12491187B2, “Use of MCT1 inhibitors to enhance insulin sensitivity” (H. LEE MOFFIT CANCER CENTER AND RESEARCH INSTITUTE, INC., priority 2022, dated 2025).

Legend:
Assay type in all cases: cell-based, murine
[1] = tested on: 3T3-L1 cells; experiment: Oil Red O staining of lipid during preadipocyte differentiation; settings: differentiated in the presence of 1 μM AZD3965, vs control 3T3-L1
Description: (§1) Differentiation Protocol: The 3T3-L1 differentiation protocol was adapted from Green and Meuth (1974) (Zebisch, K, et al. Anal. Biochem. 2012 425:88-90; Green, H, et al. Cell 1974 3:127-133). Cells were seeded at approximately 80% confluency and allowed to reach confluency prior to induction of differentiation. 1-2 days post confluency, growth media was changed to ‘day 0’ media consisting of media supplemented with 0.5 mM 1-methyl-3-isobutyl xanthine (IBMX), 1 µM dexamethasone, and 10 μg/mL insulin. On ‘day 3’ media was changed to growth media with 10 μg/mL insulin only, and on ‘day 6’ media was replaced with normal growth media. After day 6, the complete media was refreshed every 2 days. Using Oil Red O staining, RT-qPCR and immunoblotting, it was determined that 3T3-L1 cells were fully differentiated into lipid-laden adipocytes by ‘day 8’ of the protocol, as reported by others (Petersen, C, et al. Sci. Rep. 2017 7:13101; Mangum, L H, et al. Toxicol. Lett. 2015 238:65-71). All differentiation experiments were performed on cells between passage 4 and 6 to ensure differentiation efficiency was consistent. Oil Red O Staining: Cells were then fixed with 4% PFA for 10 minutes. […] 10× images of cells were taken from randomized fields of view with the Cytation 5 Cell Imaging Multi-Mode reader (BioTek Instruments). Lipid content was also quantified on the Cytation 5.

[2] = tested on: differentiated 3T3-L1 adipocytes; experiment: NAD+/NADH ratio (NAD+/NADH-Glo); settings: 1 μM
Description: NAD+/NADH Ratio: 3T3-L1 cells were seeded, differentiated and treated with or without AZD3965 (1 μM) for 15 min, 30 min, 1 hr, 4 hr, 8 hr or 24 hr in clear 96 well plates (Corning®). Following incubation with the compound, the NAD+/NADH-Glo™ (Promega®) kit was used to measure both the NAD+ and NADH concentrations within each sample according to the manufacturer's protocol. Briefly, samples were lysed and split into 2 separate white 96 well plates (Corning®). One plate was treated with a strong acid (0.4N HCl) to eliminate NADH in the sample while the other plate was treated with a strong base (0.2N NaOH) to eliminate NAD+, and both plates were incubated at 60° C. for 15 minutes. Samples were then neutralized and subjected to the NAD+/NADH-Glo™ assay. Within this assay, in the presence of NAD+ or NADH, an enzyme ‘Reductase’ reduces a pro-luciferin reductase substrate to form luciferin which emits a luminescent signal directly proportional to the quantity of NAD+ or NADH within the sample. Luminescence was read on a spectrophotometer (FlexStation 3; Molecular Devices). To calculate the NAD+/NADH ratio for each sample, luminescence from acid-treated samples, (reflecting NAD+level), was divided by the luminescence signal from the corresponding base-treated samples (reflecting NADH levels).

[3] = tested on: differentiated 3T3-L1 (WT) cells; experiment: Immunoblotting of protein expression in differentiated adipocytes
Description: Immunoblotting: For the collection of membrane bound proteins (i.e., MCT1), cells were lysed and the membrane fraction of protein was isolated as previously described (Sadler, J B A, et al. Preparation of a total membrane fraction from 3T3-L1 adipocytes (Cold Spring Harb. Protoc. 2016, 2016, pdb-prot083675). Briefly, cells were lysed with ice cold HES buffer (250 mM sucrose, 20 mM HEPES, 1 mM EDTA, pH7.4) containing a cocktail of protease and phosphatase inhibitors (Roche Diagnostic) and centrifuged for 5 min (500 g at 4° C.) to pellet out nuclei. The remaining supernatant (containing cytosolic and membrane bound proteins) was collected. For all other immunoblotting experiments, RIPA lysis buffer containing protease and phosphatase inhibitors was used, and protein was isolated via centrifugation at 17,000 g for 10 min at 4° C. For all samples, protein concentration of the lysates was measured using the BCA Protein Assay Kit (Pierce Biotechnologies). Diluted lysates were added to Laemmli sample buffer and denatured at 95° C. for 5 min. After sample preparation, proteins were resolved via SDS-polyacrylamide gel electrophoresis (4-12%) using NuPAGE 4-12% Bis-Tris gels (Invitrogen), and transferred to nitrocellulose membranes. Blots were placed in blocking buffer (LI-COR Biosciences) and incubated overnight at 4° C. with primary antibodies at the recommended dilution. Blots were washed 3 times (5 minutes per wash) in TBST (20 mM Tris, pH 7.6, 140 mM NaCl, and 0.1% Tween-20), and then incubated with the appropriate IRDye-conjugated secondary antibody (LI-COR Biosciences) diluted in blocking buffer and incubated at room temperature for an hr. […] Bands were quantified using Image Studio™ (LI-COR Biosciences).

[4] = tested on: differentiated 3T3-L1 (WT) cells; experiment: Oil Red O staining of fully differentiated adipocytes; settings: 1 μM, 24 hr, 48 hr or 72 hr
Description: as §1

[5] = tested on: 3T3-L1 cells; experiment: Immunoblotting of adipogenic proteins during differentiation; settings: differentiated in the presence of 1 μM AZD3965
Description: Differentiation Protocol: The 3T3-L1 differentiation protocol was adapted from Green and Meuth (1974) (Zebisch, K, et al. Anal. Biochem. 2012 425:88-90; Green, H, et al. Cell 1974 3:127-133). Cells were seeded at approximately 80% confluency and allowed to reach confluency prior to induction of differentiation. 1-2 days post confluency, growth media was changed to ‘day 0’ media consisting of media supplemented with 0.5 mM 1-methyl-3-isobutyl xanthine (IBMX), 1 µM dexamethasone, and 10 μg/mL insulin. On ‘day 3’ media was changed to growth media with 10 μg/mL insulin only, and on ‘day 6’ media was replaced with normal growth media. After day 6, the complete media was refreshed every 2 days. Using Oil Red O staining, RT-qPCR and immunoblotting, it was determined that 3T3-L1 cells were fully differentiated into lipid-laden adipocytes by ‘day 8’ of the protocol, as reported by others (Petersen, C, et al. Sci. Rep. 2017 7:13101; Mangum, L H, et al. Toxicol. Lett. 2015 238:65-71). All differentiation experiments were performed on cells between passage 4 and 6 to ensure differentiation efficiency was consistent.
Immunoblotting: For the collection of membrane bound proteins (i.e., MCT1), cells were lysed and the membrane fraction of protein was isolated as previously described (Sadler, J B A, et al. Preparation of a total membrane fraction from 3T3-L1 adipocytes (Cold Spring Harb. Protoc. 2016, 2016, pdb-prot083675). Briefly, cells were lysed with ice cold HES buffer (250 mM sucrose, 20 mM HEPES, 1 mM EDTA, pH7.4) containing a cocktail of protease and phosphatase inhibitors (Roche Diagnostic) and centrifuged for 5 min (500 g at 4° C.) to pellet out nuclei. The remaining supernatant (containing cytosolic and membrane bound proteins) was collected. […] For all samples, protein concentration of the lysates was measured using the BCA Protein Assay Kit (Pierce Biotechnologies). […] Bands were quantified using Image Studio™ (LI-COR Biosciences).

Cc1[nH]nc(C(F)(F)F)c1Cc1sc2c(c1C(=O)N1C[C@](C)(O)CO1)c(=O)n(C)c(=O)n2C(C)C [AZD3965, 5-[[(4S)-4-hydroxy-4-methyl-2-isoxazolidinyl]carbonyl]-3-methyl-1-(1-methylethyl)-6-[[5-methyl-3-(trifluoromethyl)-1H-pyrazol-4-yl]methyl]-thieno[2,3-d]pyrimidine-2,4 (1H, 3H)-dione]
lipid content (Oil Red O staining) over the course of differentiation [1]: significantly less lipid
NAD+/NADH ratio ([2]; all time points measured (15 min-24 hr)): significant change
NAD+/NADH ratio ([2]; first 8 hr of treatment): significant decrease
total CDK1 protein expression ([3]; 1 μM, up to 72 hr): no change
CDK1 phosphorylation at Tyr15 ([3]; 1 μM, up to 72 hr, normalized to total CDK1 and α-tubulin): significant decrease
HSL protein expression ([3]; mature adipocytes, 24-72 hr treatment): significant decrease
FABP4 protein expression ([3]; mature adipocytes, 48 hr treatment): significantly increased
FABP4 protein expression ([3]; mature adipocytes, by 72 hr treatment): this increase was attenuated
PPARγ protein expression ([3]; mature adipocytes, up to 72 hr treatment): no changes
lipid content (Oil Red O staining) of differentiated adipocytes [4]: progressive decrease in lipid content
FABP4 protein expression during differentiation [5]: significantly attenuated
HSL protein expression during differentiation [5]: significantly attenuated
PPARγ protein expression during differentiation [5]: significantly attenuated
